Values of other authors as cited in patent US20030190354A1 (priority 2002, published 2003).
Counter-ions that a name gives are not always drawn.

Conditions: 0.2 M sodium chloride

COc1ccc(C(CN(C)C)C2(O)CCCCC2)cc1 (racemic) [Venlafaxine hydrochloride, (R/S)-1-[2-(dimethylamino)-1-(4-methoxyphenyl)ethyl] cyclohexanol hydrochloride]
octanol: water partition coefficient: 0.43
